According to US20260000781A1, “FC CONJUGATES INCLUDING AN INHIBITOR OF CD73 AND USES THEREOF” (Cidara Therapeutics, Inc., priority 2022, published 2026):
Read-outs that look alike come from different tables or passages of the source.

Columns and labels:
CD73 = molecular target: T1, CD73 (Homo sapiens, UniProt P21589); assay: Cell-free CD73 inhibition IC50 (nM)
T1 sequence (P21589 27-549): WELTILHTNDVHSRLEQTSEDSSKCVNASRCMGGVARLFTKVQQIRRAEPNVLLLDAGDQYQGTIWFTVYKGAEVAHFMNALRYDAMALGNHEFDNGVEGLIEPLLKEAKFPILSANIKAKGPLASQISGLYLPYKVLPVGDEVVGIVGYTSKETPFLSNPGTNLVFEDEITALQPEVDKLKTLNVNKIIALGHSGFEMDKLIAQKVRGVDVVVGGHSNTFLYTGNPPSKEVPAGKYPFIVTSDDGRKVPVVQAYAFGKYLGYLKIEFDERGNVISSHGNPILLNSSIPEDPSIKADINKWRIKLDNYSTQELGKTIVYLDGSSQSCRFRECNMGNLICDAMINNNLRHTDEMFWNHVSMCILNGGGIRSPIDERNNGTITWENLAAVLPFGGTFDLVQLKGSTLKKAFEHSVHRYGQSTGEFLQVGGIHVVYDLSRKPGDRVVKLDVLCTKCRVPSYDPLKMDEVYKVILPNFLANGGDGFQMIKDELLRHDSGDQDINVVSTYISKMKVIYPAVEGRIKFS
Text: Table printed on a drawing sheet, FIG. 24
Head of the field: Cell-free CD73 inhibition IC50 (nM)
Where the first naming reader finds the target: head: Cell-free CD73 inhibition IC50 (nM)

[1] = molecular target: T2, CD73 expressed on the MDA-MB-231 cell surface (Homo sapiens, UniProt P21589); assay: Cell-based CD73 enzyme inhibition assay on MDA-MB-231 cells; conditions: AMP 400 μM, 3 h (FIG. 3)
T2 construct: host or cells: MDA-MB-231
T2 sequence (P21589 27-549): T1 sequence (P21589 27-549)
Procedure: The cell-based CD73 enzyme inhibition assay was performed essentially as described above for the cell-free assay, with the following modifications.
(§1) The cell-based CD73 enzyme inhibition assay was performed essentially as described above for the cell-free assay, with the following modifications. MDA-MB-231 human breast adenocarcinoma cells (ATCC CRM-HTB-26) were seeded at 2×10^4 cells/well/100 μL into 96-well tissue culture-treated plates (Corning Costar cat no. 3596) and incubated overnight at 37° C., 5% CO2. […] The 96-well plate was then centrifuged at 125×g for 5 min at room temperature and ATP (25 μL/well, 100 μM final) was combined with supernatant (25 μL/well) in a white opaque 96-well plate (Corning Costar cat no. 3912).
as §1, with “3912). […] Percent CD73 inhibition (y-axis) versus log10 inhibitor concentration (x-axis) were plotted using GraphPad Prism Version 8 and IC50's calculated using nonlinear regression analysis (Sigmoidal, 4 PL).” for “3912).”

[2] = molecular target: T3, CD73 on EMT6 mouse mammary carcinoma cells (Mus musculus, UniProt Q61503); assay: CD73 enzyme inhibition assay with mouse EMT6 cells (PiColorLock); type: cell-based; conditions: mouse EMT6 cancer cells, AMP 100 μM
T3 construct: host or cells: EMT6
T3 sequence (Q61503 29-551): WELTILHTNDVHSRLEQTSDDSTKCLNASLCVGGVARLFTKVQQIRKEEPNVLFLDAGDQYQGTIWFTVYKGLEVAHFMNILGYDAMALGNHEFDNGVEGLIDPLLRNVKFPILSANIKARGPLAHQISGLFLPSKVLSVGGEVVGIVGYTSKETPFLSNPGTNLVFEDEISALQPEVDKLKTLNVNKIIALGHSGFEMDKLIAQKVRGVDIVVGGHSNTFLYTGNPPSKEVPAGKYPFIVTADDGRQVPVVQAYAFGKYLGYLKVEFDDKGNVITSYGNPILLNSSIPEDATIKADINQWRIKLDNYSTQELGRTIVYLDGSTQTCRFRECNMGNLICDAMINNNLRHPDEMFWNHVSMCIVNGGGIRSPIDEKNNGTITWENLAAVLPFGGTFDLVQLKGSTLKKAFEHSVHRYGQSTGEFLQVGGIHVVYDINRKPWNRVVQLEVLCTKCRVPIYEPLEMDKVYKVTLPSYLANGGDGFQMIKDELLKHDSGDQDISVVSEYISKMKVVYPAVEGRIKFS
Procedure: The cell-based CD73 enzyme inhibition assay was performed in a 96-well plate format using the Phosphate Assay Kit—PiColorLock™ in accordance with the manufacturer's instructions (cat no. 270004, Abcam). AMP is enzymatically converted by CD73 to adenosine and phosphate. Therefore, adenosine concentrations can be inferred from phosphate concentrations in 1:1 ratio. Both EMT6 mouse mammary carcinoma cells (ATCC CRL-2755) and human peripheral blood mononuclear cells (PBMC; Stemcell Technologies cat no. 70025, lot no. 2202401007) were assayed. The EMT6 cells were washed three times with a phosphate free CD73 buffer, detached from flasks using a cell scraper, and seeded at 3×10^3 cells/well in 100 μL into 96-well tissue culture-treated plates. Human PBMC cells were washed three times by suspending in phosphate free CD73 buffer and pelleting in a centrifuge at 125×g for 10 min at room temperature and seeded at 5×10^5 cells/well in 100 μL into 96-well tissue culture-treated plates. […] AMP was added at 100 μM and cells, test articles, and AMP were incubated together for 3 h and 24 h at 37° C., 5% CO2. The CD73 activity in the supernatant was quantified using the PiColorLock Phosphate assay kit. Colorimetric detection reagent was added and the free phosphate from the CD73 reaction was measured by reading the absorbance at 635 nm using the EnSpire multimode plate reader (PerkinElmer). Wells without test inhibitor (CD73 positive control) were included on each plate. Wells without test inhibitor and cells (background) were subtracted from all wells. The percent CD73 inhibition versus inhibitor concentration was plotted using GraphPad Prism Version 8 and IC50's calculated using nonlinear regression analysis (Sigmoidal, 4 PL).

| IC50 (CD73) | IC50 [1] | IC50 ([2]; 3 h IC50 [nM], 3 h) | IC50 ([2]; 24 h, read-out: 24 h IC50) | IC50 ([2]; read-out: 3 h IC50, 3 h) | Compound |
| --- | --- | --- | --- | --- | --- |
| 16.1 nM | 4.87 nM |  |  |  | O=P(O)(O)COC[C@H]1O[C@@H](n2ncc3c(N4CC5(CCc6ccccc65)C4)nc(Cl)nc32)[C@H](O)[C@@H]1O [SHR170008] |
|  |  | 1.06 nM | 2.29 nM |  | C[C@H](Nc1cc(Cl)nc2c1cnn2[C@@H]1O[C@H](COP(=O)(O)CP(=O)(O)O)[C@@H](O)[C@H]1O)c1ccccc1F [AB680] |
| 2.25 nM | 0.31 nM |  | 0.51 nM | 0.28 nM | COC[C@](CO)(OC[C@H]1O[C@@H](n2ncc3c(NC4CCCC4)nc(Cl)nc32)[C@H](O)[C@@H]1O)P(=O)(O)O [OP-5244] |
